The subject of data set [1] is FXR targeting genes and genes associated with the saccharide, triglyceride and cholesterol metabolism. The experiment in a line: Fluorescence quantitative PCR of liver gene expression in treated wild-type mice. It is filed as in vivo. To be noted: wild-type mouse liver, real-time PCR, FIG. 13. As for the experimental part:
Total RNA is extracted from the tissues using an RNA extraction kit (Omega Bio-Tek, GA). TAKARA reverse transcription kit is used for the reverse transcription, and fluorescence quantitative PCR is performed with CFX™ 96 (BIO-RAD) real-time monitoring system using SYBR green fluorescent dye so as to analyze the gene expression level. The expression level of Actin gene is used as the internal reference for the results. The reaction system comprises SYBR Premix Ex Taq (2×) of 12.5 μl, PCR forward primer (10 μM) of 1 μl, PCR reverse primer (10 μM) of 1 μl, cDNA template of 2 μl, and sterilized distilled water of 8.5 μl, 25 μl in total. The two-step amplification PCR procedures are as follows: pre-denaturation at 95° C. for 30 s, PCR reaction at 95° C. for 5 s, and 60° C. for 40 s. 40 cycles.
The expression of genes associated with saccharides, lipids, and cholesterol metabolism in mouse liver treated with ligand medicaments is detected by fluorescent quantitative real-time PCR.

In data set [2] the test system is other detected nuclear receptors. The experiment in a line: Reporter gene analysis, COS-7 cells cotransfected with other nuclear receptors (PPARs, RORs, GR, PR, RARα, RARβ, PXR, CAR). To be noted: 0.5 μM, COS-7, FIG. 2. The method, then:
DMEM medium containing 10% fetal bovine serum is used to perform the culture of monkey kidney epithelial cell COS-7 cells, and COS-7 cells are inoculated onto a 24-well plate on the day before transfection with an inoculation density of 5×10^4 cells/well, and transfected on the next day. The transfection is the transient transfection performed using Lipofectamine 2000 (Invitrogen). In the reporter gene analysis experiment, 200 ng of a nuclear receptor full-length expression plasmid or the expression plasmid of the mutant thereof, 200 ng of endogenous promoter reporter gene, and 30 ng of Renilla luciferase expression plasmid are used for cotransfection. 500 μl Opti-MEM is added to each well and cultured for 5 h, followed by adding a ligand medicament diluted in Opti-MEM to reach the corresponding concentration, and treating for 18 h. Various nuclear receptors and the corresponding reporter gene used are as follows: human FXR, EcRE-Luc; human PPARs (α, β, and γ), PPRE-Luc; human RORs (α, β and γ), Pcp2/RORE-Luc; human GR and PR, MMTV-Luc; human RARα and RARβ, and βRE-Luc.
A ligand can be tested for the affinity to FXR since the ligand can induce FXR to recruit coregulators after binding to FXR.
(In a reporter assay the amount or activity of a reporter protein is the signal.)

Another data set relates to wild-type C57BL/6J mice. The experiment in a line: Mouse trial, wild-type mice fed with high-fat diet. The following applies: 1.3 mg/kg i.p. daily, 14 days. The method, then: Wild-type C57BL/6J mice of 9-10 weeks old, and FXR gene deletion homozygous mice (FXR^−/−) and diabetes and obesity mouse model mice (KK-Ay) with the same background are used, fed with high-fat diet (Research Diets, D12492), with free access to water, in SPF grade animal room in experimental animal center, Xiamen University. […] Intraperitoneal injection is performed one time at 9 o'clock every morning, continued for 14 days, and the mice are measured for body weight and the food intake every two days. At the end of 14 days, the mice are provided with free access to water, and after being hungry for 6 h, the mouse body weights are measured, and the percentage of the final body weight relative to the initial body weight before the treatment of the injection trial indicates the change of mouse body weight. Then blood is sampled from the eye balls, and sera are obtained by separation. The components in serum are detected by the following kits respectively: sugar-oxidase method (Beijing Applygen); insulin (Crystal Chem. Inc., USA); total cholesterol and cholesterol in high and low density lipoprotein (Bioassay Systems, USA); triglyceride (Beijing Applygen and WAKO Chemicals Inc., Japan); free fatty acids (Bioassay Systems, USA); and aspartate aminotransferase and alanine aminotransferase (Biosino Bio-technology and Science Inc., Beijing, China). Mouse liver is taken, a part of which is fixed with paraformaldehyde, and embedded with paraffin, sectioned, and stained with hematoxylin and eosin, and a part of which is cryopreserved with liquid nitrogen for use in extracting RNA for measuring gene expression with fluorescence quantitative PCR.

In another data set the test system is KK-Ay mice. Briefly: Mouse trial, KK-Ay diabetes and obesity model mice fed with high-fat diet. Type of data set: in vivo. The source says:
In order to detect the efficacy of abamectin/avermectin, ivermectin and the derivative doramectin in the body of a diabetes and obesity mouse model, we choose diabetes and obesity mouse model mice, KK-Ay mice, as the experimental subject.

The subject of data set [3] is wild-type mouse liver cells. Briefly: LPS induced inflammatory gene expression in wild-type mouse liver cells. To be noted: FIG. 19. Type of data set: cell-based. From the text:
Ivermectin and LPS are used to treat wild-type and FXR knockout mouse liver cells.

The mark [4] stands for this setting: i.p. daily 14 days, ivermectin/derivatives 1.3 mg/kg, GW4064 30 mg/kg.

Regarding `CC[C@H](C)[C@H]1O[C@]2(CC[C@@H]1C)C[C@@H]1C[C@@H](C/C=C(\C)C(O[C@H]3C[C@H](OC)C(O[C@H]4C[C@H](OC)[C@@H](O)[C@H](C)O4)[C@H](C)O3)[C@@H](C)/C=C/C=C3\CO[C@@H]4[C@H](O)C(C)=CC(C(=O)O1)[C@]34O)O2` (some centres unmarked) [ivermectin], the “expression of genes associated with saccharides, lipids and cholesterol metabolism in liver” value in data set [1] was “can regulate the expression of genes associated with metabolism”. In addition, the “transcriptional activity of the other detected nuclear receptors” value in data set [2] is “does not produce any effect”. For the same molecule, in the data set with wild-type C57BL/6J mice (FIG. 11), the “activity of serum alanine aminotransferase” value is “does not affect the transaminase activity” and the “activity of serum aspartate aminotransferase” value was “does not affect the transaminase activity”. The “liver injury, liver section stained with hematoxylin and eosin” value in the data set with wild-type C57BL/6J mice (FIG. 12) was “produces no injury to liver cells”. Also, in the data set with wild-type C57BL/6J mice (high-fat diet), the “cholesterol level in high density lipoprotein” value was “significantly downregulated”; the “cholesterol levels in low density and very low density lipoprotein” value is recorded as “downregulated”; the serum cholesterol level result was “significantly decreases”; the serum glucose level result is listed as “significantly decreases”. In addition, in the data set on wild-type C57BL/6J mice (high-fat diet), the serum insulin level entry is given as “significantly decreases” and the “serum triglyceride (Tg) level” value is “significantly decrease”. In the data set with KK-Ay mice (1.3 mg/kg i.p. daily, 14 days), the serum insulin level result is on record as “significantly decreases” and the “serum saccharides (glucose) level” value was “significantly decreases”. Besides, the “serum free fatty acids” value in the data set with KK-Ay mice (i.p. daily 14 days, ivermectin 1.3 mg/kg, GW4064 30 mg/kg) is reported as “significantly decrease”. In the data set with KK-Ay mice (setting [4]), the serum cholesterol result is “significantly decrease” and the serum triglycerides result is recorded as “significantly decrease”. For the same molecule, in data set [3], the “expression of IL-6 induced by LPS” value is “clearly inhibit”, the “expression of MIP-1a induced by LPS” value is on record as “clearly inhibit”, the “expression of TNFa induced by LPS” value was “clearly inhibit” and the “expression of iNOS induced by LPS” value is recorded as “clearly inhibit”.

These data come from US10052340B2 (XIAMEN UNIVERSITY, priority 2012, dated 2018).
